Experiment [1] has as its system translocation of the LC3 protein in Hela GFP-LC3 cells. The experiment is described as follows: Translocation of the LC3 protein in Hela human cells measured by image analysis cytometry (test C, autophagy). It counts as cell-based. As to conditions: Homo sapiens, HeLa, 2 h, EBSS + 10 μM hydroxychloroquine, cells with LC3 granulations, absolute IC50. Put shortly:
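HeLa clone stably expressing GFP-LC3, starved in EBSS with 10 μM hydroxychloroquine plus compound (10 nM to 1 μM range, 0.1% DMSO) for 2 h at 37 °C. After PFA fixation and Hoechst staining, LC3 translocation read by image analysis cytometry; IC50 from dose-response curves, mean of 2 independent experiments.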

Experiment [2] has as its system P. falciparum (highly chloroquine-resistant strain Fcm29-Cameroon). The experiment is described as follows: Antimalarial activity test (radioactive micromethod of Desjardins, tritiated hypoxanthine incorporation). As to conditions: Plasmodium falciparum, Erythrocyte, infected human erythrocytes, 48 h. It counts as cell-based. Put shortly:
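P. falciparum cultured in infected human erythrocytes (2% haematocrit, 1.5% parasitaemia) in RPMI 1640 with 5% human serum and 1% DMSO, exposed to compound for 48 h at 37 °C, 5% CO2. Tritiated hypoxanthine added at 24 h; growth inhibition versus drug-free incorporation, reported as % at 1 μM and 0.1 μM.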

Regarding `COc1ccc(CCN2c3nc(N4CCOCC4)cc(=O)n3C[C@@]2(C)C(F)(F)F)cc1` [Example 1, (S)-1-[2-(4-Methoxyphenyl)ethyl]-2-methyl-7-morpholin-4-yl-2-trifluoromethyl-2,3-dihydro-1H-imidazo[1,2-a]pyrimidin-5-one], the IC50 in experiment [1] turned out to be 44 nM. In addition, the inhibition at 0.1 µM in experiment [2] (0.1 μM) came to 67%. For the same compound, the inhibition at 1 µM in experiment [2] (1 μM) worked out at 93%.

In general, IC50 refers to the concentration that inhibits the measured activity by half. A word on the inhibition: it is the drop in the measured response relative to a control, in per cent.

The record behind these values is patent publication US8828997B2, “2,3-dihydro-1H-imidazo(1,2-a)pyrimidin-5-one derivatives, preparation thereof, and pharmaceutical use thereof” (Sanofi, priority 2009, dated 2014).
